Experimental data reported in US20260209274A1, “COMPOSITION FOR SKIN REPIGMENTATION” (BELLA AURORA LABS, S.A., priority 2022, published 2026).
Non-standard residues stand in square brackets, D forms with d. No end group written: not given here. Nle = CCCC[C@H](N)C(=O)O

How the values were obtained:
[1] = test system: reconstructed human pigmented epidermis (RHPE); assay: In vitro repigmentation assay in reconstructed human pigmented epidermis (RHPE), samples irradiated; format: cell-based; settings: Example 1; irradiated with 150 J/m^2 at 300 W/m^2 on day2, day3, day4; A 3.0 ppm, B 0.4 ppm, A + B 1.5 ppm + 0.2 ppm (7.5:1)
Protocol: (§1) For assessing the repigmentation effect, a reconstructed epidermis model was used, namely, based on adding melanocytes and keratinocytes on a polycarbonate filter (SkinEthic® RHPE, available from the company Episkin).
(§2) Sample tissues were treated with the test products for 6 days (from day1 to day6). After each dosing, the samples were incubated at 37° C., and melanin extraction was performed after 6 days of treatment (at day7). Untreated samples were also included in the assay as controls. An evaluation of cell viability was also performed.
(§3) After treatment, melanin extraction was performed by plunging each sample filter into 800 μl of Solvable® (Perkin Elmer) and heating at 63° C. overnight. The optical density of the supernatants was measured on 300 μl extract at 405 nm using synthetic melanin as reference. 6 samples were used for each treatment and the mean value was calculated.
Another analogous assay, with the same treatments, was performed but simultaneously irradiating the samples. In this second assay, the samples were irradiated with 150 J/m^2 at 300 W/m^2 three times on consecutive days (on day2, day3, and day4 of the assay).
(§4) For each of the treatments the increase in the amount of melanin generated versus the control (0) was calculated. For analysing a possible synergistic effect, the experimental increase in melanin in the combined treatment (A+B) was compared to the theoretical increase to be expected if a simple additive effect were obtained.

[2] = test system: reconstructed human pigmented epidermis (RHPE); assay: In vitro repigmentation assay in reconstructed human pigmented epidermis (RHPE), without irradiation; format: cell-based; settings: A 3.0 ppm
Protocol: as §1, §2, §3, §4
Another in vitro repigmentation assay was performed using the same reconstructed epidermis model and the same procedure as disclosed in Example 1. In this case, the assay was performed without irradiation.
In this example, the same reconstructed epidermis model was used, namely, based on adding melanocytes and keratinocytes on a polycarbonate filter (SkinEthic® RHPE, available from the company Episkin), using the same protocol disclosed in Example 1.

[3] = Example 1, without irradiation, 6 days of treatment, extraction at day7, B 0.4 ppm, A + B 1.5 ppm + 0.2 ppm (7.5:1) in culture medium
[4] = Example 1, without irradiation, 6 days of treatment, B 0.4 ppm, A + B 1.5 ppm + 0.2 ppm (7.5:1)
[5] = Example 3, C 0.1 ppm, A + C 1.5 ppm + 0.05 ppm (30:1)
[6] = Example 3, C 0.1 ppm, A + C 1.5 ppm + 0.05 ppm (30:1) in culture medium
[7] = Example 4, D 1.2 ppm, A + D 1.5 ppm + 0.6 ppm (2.5:1)
[8] = Example 4, D 1.2 ppm, A + D 1.5 ppm + 0.6 ppm (2.5:1) in culture medium

Substance | Melanin [1] | Melanin increase vs. control [1] | Melanin [2, 3] | Melanin increase vs. control [2, 4] | Melanin increase vs. control [2, 5] | Melanin [2, 6] | Melanin increase vs. control [2, 7] | Melanin [2, 8]
FHWRYPLPLPGQ (MIA inhibitor) | 36.07 µg | 1.35 µg | 34.39 µg | 1.29 µg | 0.11 µg | 36.63 µg | 1.33 µg | 33.34 µg
His-DPhe-Arg-Trp (H[dF]RW) [C] | – | – | – | – | 1.93 µg | 38.45 µg | – | –
Nle-Ala-His-DPhe-Arg-Trp (Ac-[Nle]AH[dF]RW) [B] | 38.07 µg | 3.35 µg | 37.31 µg | 4.21 µg | – | – | – | –
palmitoyl-prolil-proline [D] | – | – | – | – | – | – | 0.48 µg | 32.49 µg
